{
  "source": "paper PMC6943736",
  "about": "“Bio-Guided Isolation of Prospective Bioactive Constituents from Roots of Clausena indica (Dalzell) Oliv” (Molecules, 2019)",
  "target": "tyrosinase",
  "experiment": "enzyme assay with L-tyrosine substrate, […] nm",
  "assay_type": "biochemical",
  "data": [
    {"smiles": "COc1ccc2c(c1)[nH]c1cc(OC)c(C(=O)O)cc12", "note": "[L3, Clausine K]", "values": [
      {"measurement": "Tyrosinase Inhibition IC50", "result": 179.5, "unit": "µg/mL"}
    ]}
  ]
}
